These are literature values, as cited in patent publication US6727104B2, “Microcolumn chromatographic immunoassays” (The Board of Regents of the University of Nebraska, priority 2001, dated 2004).

Like-named read-outs stand apart in the source and are kept apart here.

For data set [1], the target named is T1, Thyroxine-Binding Globulin (Homo sapiens, UniProt P05543).
T1 sequence (P05543 21-415): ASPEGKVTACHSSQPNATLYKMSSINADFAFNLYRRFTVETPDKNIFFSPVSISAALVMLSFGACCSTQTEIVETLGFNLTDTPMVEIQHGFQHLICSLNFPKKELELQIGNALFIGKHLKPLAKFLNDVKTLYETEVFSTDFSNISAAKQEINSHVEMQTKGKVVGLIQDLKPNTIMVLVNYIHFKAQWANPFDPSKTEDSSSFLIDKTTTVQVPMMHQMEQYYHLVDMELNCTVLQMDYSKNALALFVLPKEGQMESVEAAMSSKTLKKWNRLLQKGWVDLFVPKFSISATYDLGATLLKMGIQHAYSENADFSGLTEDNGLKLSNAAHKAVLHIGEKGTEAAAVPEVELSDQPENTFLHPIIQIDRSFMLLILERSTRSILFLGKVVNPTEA
The note with it: T4 Binding Site.

The target in data set [2] is Thyroxine-Binding Prealbumin (Homo sapiens, UniProt P02766).

With `N[C@@H](Cc1cc(I)c(Oc2cc(I)c(O)c(I)c2)c(I)c1)C(=O)O` [T4, L-Thyroxine], the Ka in data set [1] is 1e+10 M⁻¹; in data set [2] (High Affinity Site) it was 1e+07 M⁻¹; in data set [2] (Low Affinity Site), 300000 M⁻¹.
